In PMC11239830, “Synthetic macrolides overcoming MLSBK-resistant pathogens” (Cell Discovery, 2024):
Values after ≈ are worked out from the molar mass of the structure shown. Where two headings read alike, the source gives them in different places.

Legend:
[1] = test system: S. pneumoniae; test: MIC, broth microdilution; type: cell-based, Streptococcus pneumoniae
Method in brief: (§1)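 Minimum inhibitory concentrations were measured by broth microdilution following CLSI guidelines. Plates were incubated at 37 °C for 16–20 h before results were read and recorded, and each determination was repeated at least three times.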

[2] = test system: WT S. aureus ribosomes; test: PURE in vitro translation inhibition assay; type: biochemical, Staphylococcus aureus; settings: mean ± SD
Experimental: (§2) To validate the in vitro activity of our compounds, we employed an in vitro reconstituted E. coli Protein synthesis Using a Recombinant Elements (PURE) translation system, substituting E. coli ribosomes with the purified S. aureus ribosomes.
(§3) 5 μL of PURE reaction mix that translates a gene encoding the Nanoluc luciferase was set up in the presence or absence of tested compounds. Protein synthesis was initiated by incubating reactions at 37 °C for 60 min and stopped by placing on ice for 5 min. Luciferase activity was quantified using the Nano-Glo luciferase assay system and read on a GloMax 20/20 luminometer (Promega, USA). For each compound, the in vitro translation inhibition assay was performed in three biological triplicates over a range of concentrations from 0.001 μM to 1000 μM. A compound-free control was used to normalize luminescence measurements. The calculated luminescence percentages were plotted against compound concentrations on a semilog scale using GraphPad Prism.

[3] = test system: 15B196 S. aureus ribosomes (A2058-methylated); test: PURE in vitro translation inhibition assay; type: biochemical, Staphylococcus aureus; settings: mean ± SD
Experimental: as §2, §3

[4] = test system: S. pyogenes; test: MIC, broth microdilution; type: cell-based, Streptococcus pyogenes
Method in brief: as §1

[5] = test system: S. aureus; test: MIC, broth microdilution; type: cell-based, Staphylococcus aureus
Method in brief: as §1

[6] = CCK-8 assay for cytotoxicity; type: cell-based, human; settings: human, HEK293T cells, HEK293T cell viability
Experimental: (§4) HepG2 cells (6 × 10^3) and HEK293T cells (4 × 10^3) were seeded into 96-well plates in 90 μL of DMEM medium containing 10% FBS per well. […] After overnight incubation, the test compound stock solution was diluted with DMEM medium containing 10% FBS to every target concentration, and 10 μL of each was added to each well. Three parallel experiments were set up for each compound. After incubation for 48 h, 10 μL of cell counting kit-8 (CCK-8) reagent was added to each well in sequence according to the manufacturer’s instructions. […] This experiment was independently repeated three times. The data were processed by GraphPad Prism.

[7] = test system: HEK293T cells; test: CCK-8 assay for cytotoxicity; type: cell-based, human; settings: 48 h
Experimental: as §4

[8] = test system: M. catarrhalis; test: MIC, broth microdilution; type: cell-based, Moraxella catarrhalis; settings: Moraxella catarrhalis; M. catarrhalis 13L332, Ery-S; read-out: MIC
Method in brief: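 CLSI microdilution; 2-fold dilutions in CAMHB; inoculum 5 × 10^5 CFU/mL; 37 °C, 16–20 h; visual endpoint, no growth; n ≥ 3.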

[9] = Staphylococcus aureus, MRSA, MRSA (13)
[10] = Staphylococcus aureus, i-MLSB S. aureus (10)

CC[C@H]1OC(=O)[C@H](C)[C@@H](OC(=O)NCCCCCCC#Cc2ccc3c(=O)c(C(=O)O)cn(C)c3c2)[C@H](C)[C@@H](O[C@@H]2O[C@H](C)C[C@H](N(C)C)[C@H]2O)[C@](C)(OC)C[C@@H](C)C(=O)[C@H](C)[C@H]2NC(=O)O[C@@]21C [MCX-219]
MIC ([1]; S. pneumoniae 07P390, c-ermB, listed as 88g): 0.06 µg/mL (≈ 0.062 µM) | MIC ([1]; S. pneumoniae 21C315, Clinical, c-ermB): 0.016 µg/mL (≈ 0.0165 µM) | MIC ([1]; S. pneumoniae 21D016, Clinical, c-ermB, mef): 0.03 µg/mL (≈ 0.031 µM) | MIC ([1]; S. pneumoniae 21D020, Clinical, c-ermB, mef): 0.03 µg/mL (≈ 0.031 µM) | MIC ([1]; S. pneumoniae 21M277, Clinical, c-ermB): 0.25 µg/mL (≈ 0.258 µM) | MIC ([1]; S. pneumoniae 21Q352, Clinical, i-MLSB): ≤ 0.002 µg/mL | MIC ([1]; S. pneumoniae 21Q353, Clinical, i-MLSB): ≤ 0.002 µg/mL | MIC ([1]; S. pneumoniae 21W257, Clinical, c-ermB, mef): 0.016 µg/mL (≈ 0.0165 µM) | MIC ([1]; S. pneumoniae 21X435, Clinical): ≤ 0.002 µg/mL | MIC ([1]; S. pneumoniae ATCC49619): ≤ 0.002 µg/mL | MIC ([1]; Streptococcus pneumoniae, ATCC49619, S. pneumoniae ATCC49619, Ery-S, read-out: MIC): ≤ 0.008 µg/mL | MIC ([1]; Streptococcus pneumoniae, S. pneumoniae 05O173, c-ermB, mef, read-out: MIC): 2 µg/mL (≈ 2.07 µM) | MIC ([1]; Streptococcus pneumoniae, S. pneumoniae 07P390, c-ermB, read-out: MIC): 0.03 µg/mL (≈ 0.031 µM) | MIC ([1]; Streptococcus pneumoniae, S. pneumoniae PU09, mef, read-out: MIC): ≤ 0.008 µg/mL | IC50 [2]: 0.72 ± 0.37 µM | IC50 [3]: 0.57 ± 0.14 µM | MIC ([4]; S. pyogenes 01-968, Clinical, i-ermB): ≤ 0.002 µg/mL | MIC ([4]; S. pyogenes 12-207, Clinical, mef): 0.016 µg/mL (≈ 0.0165 µM) | MIC ([4]; S. pyogenes 21C303, Clinical, c-ermB): 0.5 µg/mL (≈ 0.517 µM) | MIC ([4]; S. pyogenes 21D184, Clinical, c-ermB): 0.5 µg/mL (≈ 0.517 µM) | MIC ([4]; S. pyogenes 21D199, Clinical, c-ermB): 1 µg/mL (≈ 1.03 µM) | MIC ([4]; S. pyogenes 21D200, Clinical, c-ermB): 0.25 µg/mL (≈ 0.258 µM) | MIC ([4]; S. pyogenes 21K003, Clinical, mef): 0.06 µg/mL (≈ 0.062 µM) | MIC ([4]; S. pyogenes 21M063, Clinical, c-ermB): 0.25 µg/mL (≈ 0.258 µM) | MIC ([4]; S. pyogenes 21W186, Clinical, c-ermTR): 4 µg/mL (≈ 4.14 µM) | MIC ([4]; Streptococcus pyogenes, S. pyogenes 01-968, i-ermTR (Table S5), read-out: MIC): ≤ 0.008 µg/mL | MIC ([4]; Streptococcus pyogenes, S. pyogenes 12-206, c-ermB (Table S5), read-out: MIC): 0.12 µg/mL (≈ 0.124 µM) | MIC ([4]; Streptococcus pyogenes, S. pyogenes 12-206, c-ermTR, read-out: MIC): 0.06 µg/mL (≈ 0.062 µM) | MIC ([5]; S. aureus 15B196, Clinical, MRSA, c-ermB): 1 µg/mL (≈ 1.03 µM) | MIC ([5]; S. aureus 21B200, Clinical, MRSA, c-ermB): 4 µg/mL (≈ 4.14 µM) | MIC ([5]; S. aureus 21B207, Clinical, MRSA, c-ermB): 2 µg/mL (≈ 2.07 µM) | MIC ([5]; S. aureus 21B212, Clinical, MSSA, i-ermC): 0.25 µg/mL (≈ 0.258 µM) | MIC ([5]; S. aureus 21C173, Clinical, MSSA, i-ermC): 0.25 µg/mL (≈ 0.258 µM) | MIC ([5]; S. aureus 21C174, Clinical, MSSA, c-ermB): 0.25 µg/mL (≈ 0.258 µM) | MIC ([5]; S. aureus 21C187, Clinical, MRSA, i-ermA): 0.12 µg/mL (≈ 0.124 µM) | MIC ([5]; S. aureus 21D112, Clinical, MSSA, c-ermB): 16 µg/mL (≈ 16.5 µM) | MIC ([5]; S. aureus 21D115, Clinical, MSSA, i-ermC): 0.25 µg/mL (≈ 0.258 µM) | MIC ([5]; S. aureus 21F198, Clinical, MRSA, c-ermB): 1 µg/mL (≈ 1.03 µM) | MIC ([5]; S. aureus 21F206, Clinical, MSSA, c-ermB): 8 µg/mL (≈ 8.27 µM) | MIC ([5]; S. aureus 21F207, Clinical, MRSA, i-ermC): 0.25 µg/mL (≈ 0.258 µM) | MIC ([5]; S. aureus 21K194, Clinical, MSSA, i-ermC): 0.06 µg/mL (≈ 0.062 µM) | MIC ([5]; S. aureus 21N354, Clinical, MRSA, c-ermB): 1 µg/mL (≈ 1.03 µM) | MIC ([5]; S. aureus 21P191, Clinical, MSSA, c-ermC): 16 µg/mL (≈ 16.5 µM) | MIC ([5]; S. aureus 21P404, Clinical, MSSA, i-ermC): 0.25 µg/mL (≈ 0.258 µM) | MIC ([5]; S. aureus 21P407, Clinical, MRSA, c-ermB): 8 µg/mL (≈ 8.27 µM) | MIC ([5]; S. aureus 21Q253, Clinical, MRSA, c-ermB): 1 µg/mL (≈ 1.03 µM) | MIC ([5]; S. aureus 21R216, Clinical, MSSA, c-ermC): 16 µg/mL (≈ 16.5 µM) | MIC ([5]; S. aureus 21T141, Clinical, MRSA, c-ermB): 1 µg/mL (≈ 1.03 µM) | MIC ([5]; S. aureus 21X388, Clinical, i-ermA (MRSA in Table S9, MSSA in Fig. 2a)): 0.06 µg/mL (≈ 0.062 µM) | MIC ([5]; S. aureus 21Y223, Clinical, MRSA, i-ermC): 0.25 µg/mL (≈ 0.258 µM) | MIC ([5]; S. aureus ATCC29213): 0.12 µg/mL (≈ 0.124 µM) | MIC ([5]; S. aureus PU32, Clinical, MRSA, i-ermA): 0.25 µg/mL (≈ 0.258 µM) | MIC50 [5, 9]: 1 µg/mL (≈ 1.03 µM) | MIC90 [5, 9]: 4 µg/mL (≈ 4.14 µM) | MIC50 ([5]; Staphylococcus aureus, MSSA, MSSA (10)): 0.25 µg/mL (≈ 0.258 µM) | MIC ([5]; Staphylococcus aureus, S. aureus 15B196, c-ermB, read-out: MIC): 1 µg/mL (≈ 1.03 µM) | MIC ([5]; Staphylococcus aureus, S. aureus PU32, i-ermA, read-out: MIC): 0.25 µg/mL (≈ 0.258 µM) | MIC50 ([5]; Staphylococcus aureus, c-MLSB (constitutive) S. aureus (13)): 2 µg/mL (≈ 2.07 µM) | MIC90 ([5]; Staphylococcus aureus, c-MLSB S. aureus (13)): 16 µg/mL (≈ 16.5 µM) | MIC50 [5, 10]: 0.25 µg/mL (≈ 0.258 µM) | MIC90 [5, 10]: 0.25 µg/mL (≈ 0.258 µM) | MIC90 ([5]; Staphylococcus aureus, MSSA (10)): 16 µg/mL (≈ 16.5 µM) | CC50 at 48 h [6]: 25.7 ± 4.08 µM | CC50 ([7]; HEK293T cell viability): 26 µM | cytotoxicity at 5 μM ([7]; HEK293T, 5 μM): significantly reduced cytotoxicity compared to TcmX | MIC [8]: 0.5 µg/mL (≈ 0.517 µM)
